Publication PMC11500415, “Chemical inhibition of stomatal differentiation by perturbation of the master-regulatory bHLH heterodimer via an ACT-Like domain” (Nature Communications, 2024)
Values joined by “and” are separate entries in the source; they are usually repeats but may differ in a detail not shown here. Equal entries are not always repeated.

What was measured:
SCRM-MUTE [1] = molecular target: T1, SCRM-MUTE (Arabidopsis thaliana, UniProt Q9M8K6); test: ITC of SCRM binding to MUTE in presence of compound; design: species or system A. thaliana; settings: for n of SCRM_MUTE binding: without 0.96; for -T△S of SCRM_MUTE binding: without 25.3 ± 0.5; for △G of SCRM_MUTE binding: without -5.2 ± 0.2; for △H of SCRM_MUTE binding: without -30.5 ± 0.6
T1 construct: MUTE (1-202); GST (N, cleaved yes); made in house; host or cells: E. coli BL21
T1 sequence (Q9M8K6 1-202): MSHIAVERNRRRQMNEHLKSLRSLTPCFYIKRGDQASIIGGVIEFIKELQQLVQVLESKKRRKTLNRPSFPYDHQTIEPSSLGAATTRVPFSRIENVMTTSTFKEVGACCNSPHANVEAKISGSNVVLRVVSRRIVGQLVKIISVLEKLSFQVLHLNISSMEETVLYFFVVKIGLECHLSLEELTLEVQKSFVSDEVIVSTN
Excerpt: (§1) A. thaliana SCRM (1-494), ΔNSPCH (98-364), MUTE (1-202), ΔNFAMA (190-414), MUTEΔC (1-114), MUTER133A_R134A, MUTEE162A_E163A, MUTER133A_R134A_E162A_E163A, SCRM-ACTL (405-494), MUTE-ACTL (114-202), SPCH-ACTL (285-364), FAMA-ACTL (306-414), MUTE_ACTLR133A_R134A, MUTE_ACTLE162A_E163A, MUTE_ACTLR133A_R134A_E162A_E163A were cloned into pGEX-4T-1 vector with an N-terminal GST tag and a thrombin cleavage sequence. For protein expression, the constructs were transformed into E. coli strain BL21. For each transformant, a single colony was selected and incubated in 10 ml LB liquid media. The overnight-incubated E. coli suspensions were transferred to 1 L LB medium and incubated at 37 °C for around 2 h until the OD600 reached 0.4–0.6. The isopropyl β-D-1-thiogalactopyranoside ([…] of final concentration) was added to the cultures and the strains were incubated at 22 °C for a further 18 h. GST-fused proteins were purified using glutathione agarose resin. The soluble portion of the cell lysate was loaded onto a GST-Sepharose column. Nonspecifically bound proteins were removed by washing the column with 20 mM Tris pH 8.0, 200 mM NaCl. The bound GST-fused protein was eluted with 10 mm glutathione and 20 mM Tris pH 8.0, 200 mM NaCl. The GST-fused proteins were exchanged with phosphate-buffered saline buffer, and then the solution was treated with 50 μg of thrombin for 10–12 h at 16 ^οC. The GST portion of the protein was cleaved during thrombin digestion, and then the whole solution was reloaded onto the glutathione S-transferase column to obtain pure protein. The purified proteins were further purified by gel filtration on a Superdex-200 (GE) column using fast protein liquid chromatography and phosphate buffer (pH 7.2) as the eluent. The purity of the protein was checked by SDS-PAGE. For detailed lists of oligo DNA and plasmid information, see Supplementary Tables 5, 6, respectively.
Binding of the small molecule Stomidazolone (3) to SCRM, MUTE, SPCH, FAMA, MUTEΔC, MUTE_ACTL, SCRM_ACTL, SPCH_ACTL and FAMA_ACTL, MUTER133A_R134A, MUTEE162A_E163A, MUTER133A_R134A_E162A_E163A, as well as SCRM binding to MUTE in the presence and absence of Stomidazolone (3) / AYSJ1059 (5) /AYSJ1061 (6) was characterized at 30 °C using a Malvern PEAQ-ITC microcalorimeter. All the protein samples were dialyzed overnight using PBS buffer containing 2% DMSO and 1 mM DTT. Stomidazolone was dissolved in PBS buffer containing 2% DMSO and 1 mM DTT. Titrations were performed by injecting 1 × 0.5-μL and 12 × 3-μL or 1 × 0.75-μL and 18 × 2-μL or 1 × 0.2-μL and 25 × 1.3-μL aliquots of 1 mM Stomidazolone / AYSJ1059 / AYSJ1061 to 5-30 μM of protein in PBS buffer pH 7.4, containing 2% DMSO and 1 mM DTT. All titrations were carried out at least twice. The raw data were corrected using buffer and protein controls and analyzed using the software supplied by the manufacturer. See Supplementary Table 3 for details.

SCRM-MUTE [2] = molecular target: T1, SCRM-MUTE; test: BLI of SCRM-MUTE interaction in presence of compound; format: binding, A. thaliana; settings: for effect on the SCRM-MUTE heterodimerization (in words): BLI and ITC (Supplementary Fig. 9, Supplementary Tables 2, 3); for Response: BLI, GST-SCRM loaded, in nm (unit assumed)
Excerpt: as §1
The binding affinities of SCRM to MUTE / MUTER133A_R134A / MUTEE162A_E163A / MUTER133A_R134A_E162A_E163A in presence and absence of Stomidazolone (3) and its analogues (AYSJ1059 (5) and AYSJ1061 (6)), and Stomidazolone / AYSJ1059 / AYSJ1061 interactions with GST-tagged SCRM, MUTE, SPCH, FAMA, MUTE ΔACTL, MUTE_ACTL, SCRM_ACTL, SPCH_ACTL and FAMA_ACTL, MUTER133A_134A, MUTEE162A_E163A, MUTER133A_R134A_E162A_E163A were measured using the Octet Red96 system (ForteBio, Pall Life Sciences) following the manufacturer’s protocols. The optical probes coated with anti-GST were first loaded with 500 nM GST tagged proteins before kinetic binding analyses. The experiment was performed in 96-well plates maintained at 30 °C. Each well was loaded with 200 μL reaction volume for the experiment. The binding buffer used in these experiments contained 1× PBS supplemented with 2% DMSO, 0.02% Tween20. The concentrations of the Stomidazolone as the analyte in the binding buffer were 100, 50, 25, 12.5, 6.25, 3.12, and 1.56 μM. There was no binding of the analytes to the unloaded probes as shown by the control wells. Binding kinetics to all seven concentrations of the analytes were measured simultaneously using default parameters on the instrument. The data were analyzed using the Octet data analysis software. The association and dissociation curves were fit with the 1:1 homogeneous ligand model. The kobs (observed rate constant) values were used to calculate Kd, with steady-state analysis of the direct binding. See Supplementary Table 3 for details.

## Cc1ccc(C2(NS(=O)(=O)c3ccccc3)N=C(c3ccccc3)C(=O)N2S(=O)(=O)c2ccccc2)cc1 (stereo not shown) [AYSJ1059]
SCRM-MUTE [1]
  n of SCRM_MUTE binding: 1.0
  -T△S of SCRM_MUTE binding: 27.2 ± 0.6
  △G of SCRM_MUTE binding: -6.3 ± 0.2
  △H of SCRM_MUTE binding: -33.5 ± 0.6
SCRM-MUTE [2]
  effect on the SCRM-MUTE heterodimerization (in words): minimal effects

## O=C1C(c2ccccc2)=NC(NS(=O)(=O)c2ccccc2)(c2ccc(Br)cc2)N1S(=O)(=O)c1ccccc1 (stereo not shown) [AYSJ1061]
SCRM-MUTE [1]
  n of SCRM_MUTE binding: 1.1
  -T△S of SCRM_MUTE binding: 35.3 ± 0.6
  △G of SCRM_MUTE binding: -10.2 ± 0.2
  △H of SCRM_MUTE binding: -45.5 ± 0.6
SCRM-MUTE [2]
  effect on the SCRM-MUTE heterodimerization (in words): minimal effects

## O=C1C(c2ccccc2)=NC(NS(=O)(=O)c2ccccc2)(c2ccccc2)N1S(=O)(=O)c1ccccc1 (stereo not shown) [Stomidazolone]
SCRM-MUTE [1]
  n of SCRM_MUTE binding: 0.91
  -T△S of SCRM_MUTE binding: 5.2 ± 0.4
  △G of SCRM_MUTE binding: -2.3 ± 0.2
  △H of SCRM_MUTE binding: -7.5 ± 0.3
SCRM-MUTE [2]; MUTE+Stomid Conc. 78 nM
  Response: 0.031
SCRM-MUTE [2]; MUTE+Stomid Conc. 78 nM, listed as Stomid
  Response: 0.0213
SCRM-MUTE [2]; MUTE+Stomid Conc. 156 nM
  Response: 0.0603 and 0.0323
SCRM-MUTE [2]; MUTE+Stomid Conc. 312.5 nM
  Response: 0.0687 and 0.078
SCRM-MUTE [2]; MUTE+Stomid Conc. 625 nM
  Response: 0.1313 and 0.1154
SCRM-MUTE [2]; MUTE+Stomid Conc. 1250 nM
  Response: 0.2145 and 0.1812
SCRM-MUTE [2]; MUTE+Stomid Conc. 2500 nM
  Response: 0.2742 and 0.2312
SCRM-MUTE [2]; MUTE+Stomid Conc. 5000 nM
  Response: 0.2812 and 0.3134
